Tests used:
human Kir2.1 [1] = target: T1, human Kir2.1 (Homo sapiens, UniProt P63252); experiment: Kir2.1 thallium flux assay; format: cell-based; details: for IC50: T-REx-HEK-293 cells expressing human Kir2.1, 4PL fit, top concentration 30 μM, read-out: Thallium Flux Potency IC50
T1 construct: expressed in transfected cells
T1 sequence (P63252 1-427): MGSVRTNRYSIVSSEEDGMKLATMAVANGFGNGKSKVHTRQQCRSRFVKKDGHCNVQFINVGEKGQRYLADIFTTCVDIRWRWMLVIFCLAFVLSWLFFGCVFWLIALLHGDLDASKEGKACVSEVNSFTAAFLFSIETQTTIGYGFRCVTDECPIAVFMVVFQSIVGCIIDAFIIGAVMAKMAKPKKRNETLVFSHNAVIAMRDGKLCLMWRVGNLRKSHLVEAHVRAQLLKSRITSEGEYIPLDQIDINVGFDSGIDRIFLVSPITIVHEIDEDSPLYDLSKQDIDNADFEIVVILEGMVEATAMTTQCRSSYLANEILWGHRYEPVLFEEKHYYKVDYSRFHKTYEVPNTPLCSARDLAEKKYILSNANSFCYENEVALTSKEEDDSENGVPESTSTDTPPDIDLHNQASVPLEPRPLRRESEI
Protocol: Thallium Flux Assay Experimental Conditions
The Tl+ flux assays were conducted as previously described with modifications optimized for Kir2.1 cell line as described below.1
Briefly, stable T-REx-HEK-293 cells expressing human K ir2.1 were cultured in DMEM growth medium (Catalog #11965-092, Gibco, Billings, MT) containing 10% heat-inactivated FBS (Catalog #16140, Gibco), 100 U/mL PenStrep, 5 μg/mL Blasticidin S, and 250 μg/mL Hygromycin.
The day prior to the experiment, cells at ~90% confluency were resuspended in plating media, which consisted of the same components as the growth media, except that heat-inactivated FBS was replaced with dialyzed FBS (Catalog #26400, Gibco). Tetracycline was added to the plating media to achieve a final concentration of 1 μg/ml to induce hKir2.1 expression. Cells were then counted and plated at 15,000 cells/well in black-walled, amine- or PDL- coated, 384-well plates at 20 μl/well (Corning, Corning, NY). On the day of experiment, the media was removed from the cell plate and replaced with 20 μl/well of Tl+-sensitive dye loading solution containing 2.5 μg/ml Thallos-AM (Catalog #11000-050, ION Biosciences, San Marcos, TX) in assay buffer using a Multidrop Combi dispenser (Thermo Fisher Scientific, Walkham, MA). Cell plates loaded with dye solution were incubated for 1 hour at room temperature. Following incubation, the cell plate was washed with HBSS assay buffer containing 20 mM HEPES using a BioTek ELx 405 TS plate washer (Agilent, Santa Clara, CA), leaving 20 μl of assay buffer in each well. The cell plate was then transferred to a Panoptic kinetic imaging plate reader (WaveFront Biosciences, Franklin, TN) for imaging at 1 Hz, 482/35 nm excitation and 536/40 nm emission for 10 seconds. Following this, 20 μl/well of HBSS assay buffer containing test compounds at 2-fold over their final concentrations were added and imaging continued for another eight minutes, after which 10 μl/well of chloride-free Tl+ stimulus solution was added (Catalog #11000-050, ION Biosciences). The final Tl2SO4 concentration in cell plate post-Tl+ stimulus solution addition was 0.25 mM. Images were collected for an additional two minutes. A ten-point concentration series from 30 μM to 2 nM with a 1:3 dilution factor was generated using an Echo liquid handler 650 (Labcyte, San Jose, CA). Final DMSO concentration, 0.3% (v/v) in the assay was constant across all compound concentrations.
The initial slopes of the Tl+-induced fluorescence changes were fit to a four-parameter logistic equation using our in-house software Waveguide to determine potency and efficacy values. […]
Bauer, J. A.; Days, E. L.; Lindsley, C. […]

[2] = Rat PK PBL cassette (i.v.); format: in vivo, Sprague-Dawley rat; details: Sprague-Dawley, iv, male SD rat, 0.2 mg/kg i.v. cassette
Description: While ML133 has found use as a Kir2.1 tool molecule across many disease models, the in vivo PK of this and related compounds within the dibenzylamine chemotype have not previously been characterized. As a highly efficient method for profiling the PK of a compound set, we therefore examined ML133 (alongside 9 additional next-generation Kir2.1 inhibitors) in our rat PK PBL cassette dosing platform (Table ). − From this experimental setup, administration of a 4-compound bolus dose, plus a standard control, can be used to determine a variety of PK parameters in a high-throughput fashion. Specifically, Sprague–Dawley (SD) rats were given 0.2 mg/kg of each Kir2.1 inhibitor (i.v. dosing, 4 compounds +1 control, total dose 1 mg/kg) with PK measured across set time points up to 24 h. Additionally, a separate cohort of animals was utilized to assess total plasma-brain levels (PBL, ratio reported as Kp) of compound at a 0.25 time point. In this fashion, standard plasma-based PK parameters (elimination t 1/2, […] (MRT), plasma clearance (CLp), and volume of distribution (Vss)) were measured alongside a parallel assessment of total brain exposure.
PK PBL Cassette Experimental Conditions
4 compounds plus one control were formulated as a solution in ethanol, PEG400, and DMSO (1:3:6 v/v, respectively) at a concentration of 1 mg/mL and administered as a single IV dose (1 mL/kg, 0.2 mg/kg per compound, total 1 mg/kg) to male, Sprague Dawley rats (n = 1) via injection into a surgically -implanted jugular vein catheter. Blood samples were collected serially from a surgically implanted carotid artery catheter in each animal over multiple post -administration time points (0.033, 0.117, 0.25, 0.5, 1, 2, 4, 7, and 24 hours) into chilled, K 2EDTA anticoagulant - fortified tubes and immediately placed on wet ice. The blood samples were then centrifuged (1700 rcf, 5 minutes, 4 °C) to ob tain plasma samples, which were stored at -80 °C until analysis […]
For determination of the brain over plasma ratio (K p), the same cassette of compounds plus control were formulated in ethanol, PEG400, and DMSO (1:3:6 v/v, respectively) and administered as a single IV dose (1 mL/kg, 0.2 mg/kg per compound, total 1 mg/kg) to male, Sprague Dawley rats ( n = 1) via injection into a surgically-implanted jugular vein catheter. At 15 min post dosing, blood sample was collected terminally into chilled, K 2EDTA anticoagulant-fortified tube and immediately placed on wet ice. The bloo d sample was then centrifuged (1700 rcf, 5 minutes, 4 °C) to obtain plasma sample. At the same post-administration time point, whole brain sample was obtained by rapid dissection, rinsed with PBS, and immediately frozen in individual tissue collection box (dry ice). All brain and plasma samples were stored at -80 °C until […]
Samples preparation for bioanalysis
Plasma samples from the in-life phase of the study were thawed at ambient temperature (benchtop), and then aliquots (20 µL per sample) were transferred to a 96-shallow-well (V-bottom) plate. Matrix-matched quality control (QC) samples and a standard curve of each analyte (1 mg/mL DMSO stock solution) were prepared in blank rat plasma (K2EDTA-treated) via serial dilution and transferred (20 µL each) to the plate along with multiple blank plasma samples. MeCN (120 µL) containing IS (10 nM carbamazepine) was added to each well of the plate to precipitate protein. The plate was then centrifuged (4000 rcf, 5 minutes, ambient temperature), and resulting supernatants (60 µL each) were transferred to a new 96-shallow-well (V-bottom) plate containing an equal volume (60 µL per well) of water (Milli-Q purified). The plate was then sealed in preparation for LC-MS/MS analysis.
Preparation of brain samples was identical to that of plasma samples except for the following modifications. While thawing, brains were weighed (inside their collection boxes using a universal empty collection box tare weight) and then subjected to mechanical homogenization […]

human Kir2.1 [3] = target: T1, human Kir2.1; experiment: Kir2.1 manual patch clamp (MPC) assay; format: cell-based; details: pH 7.4, -120 mV, normalized to 2 mM Ba2+ block; top concentration 10 μM (ML133 30 μM, 5t 3 μM)
Protocol: Manual Patch Claim Assay Experimental Conditions
Whole-cell patch-clamp electrophysiology was used to record K ir2.1 currents from a stably transfected monoclonal T-Rex-HEK-293 cell line with a tetracycline-inducible promoter expressing human Kir2.1, as described previously1 cultured in a 5% CO2 incubator at 37°C. Kir2.1 expression was induced by overnight treatment with 1 µg/mL tetracycline. Cells were dissociated using 0.25% Trypsin-EDTA and seeded onto 12 mm circular coverslips (Electron Microscopy Sciences, PA, USA) for same-day whole-cell patch-clamp recordings. Kir2.1 currents were recorded at room temperature using an AxoPatch 200B amplifier with Clampex 10.7 software (Molecular Devices, USA). The voltage-clamp protocol consisted of a 1-s step to -120 mV from a -80 mV holding potential, followed by a 2-s ramp to +40 mV, repeated every 10 s. Data were sampled at 5 kHz and filtered at 1 kHz. Patch pipettes, pulled from 1.5 mm OD thin-walled capillaries (Warner Instruments, MA, USA) using a Sutter P-1000 puller (Sutter Instrument, CA, USA), had resistances of 2–3 MΩ when filled with intracellular solution containing (mM): 135 KCl, 10 HEPES, 1 EGTA, 2 MgCl2, 2 Na2ATP (pH 7.35, adjusted with KOH). The extracellular solution contained (mM): 135 NaCl, 5 KCl, 2 CaCl2, 1 MgCl2, 5 Glucose, 10 HEPES, 10 Sucrose (pH 7.35, adjusted with NaOH). After establishing stable baseline Kir2.1 currents, cells were perfused with compounds at concentrations of 0.03–30 µM until response saturation (within minutes).
Recordings concluded with a 2 mM Ba2+ solution to isolate Ba2+-sensitive currents, with compound responses expressed as fractions of this current. Current amplitudes at the -120 mV step were analyzed using Clampfit 11.2 (Molecular Devices). IC50 values were calculated by fitting the Hill equation to concentration-response curves (CRCs) using variable -slope nonlinear regression in GraphPad Prism 10.4 (GraphPad Software).
MPC experiments for Kir2.2 and Kir2.3 were conducted in an analogous fashion.1

| IC50 (human Kir2.1 [1]) [µM] | Emax (human Kir2.1 [1]; efficacy from 4PL fit, relative to ML133, read-out: Thallium Flux Efficacy (% Inhibition)) [%] | Kp at 0.25 h ([2]; brain and plasma, 0.25 time point (15 min post dosing), read-out: Kp (total brain to plasma ratio)) | AUC ([2]; plasma, n = 1, read-out: AUC) [ng·h/mL] | clearance ([2]; plasma, n = 1, read-out: CLp) [mL/min/kg] | half-life ([2]; plasma, n = 1, read-out: Elim. t1/2 (converted)) [h] | MRT ([2]; plasma, n = 1, read-out: MRT) [h] | Vd ([2]; plasma, n = 1, read-out: Vss) [L/kg] | IC50 (human Kir2.1 [3]) [µM] | SMILES |
| --- | --- | --- | --- | --- | --- | --- | --- | --- | --- |
| 8.5 | 99 | 2.29 | 162 | 20.6 | 1.73 | 1.31 | 1.62 | – | COc1ccc(CNCc2ccc(-c3cccc(C)c3)cc2)cc1 [Compound 5r] |
| 5.4 | – | – | – | – | – | – | – | 0.21 | COc1ccc(CNCc2ccc(-c3cccc(OC)c3)cc2)cc1 [Compound 9] |
| 4.3 | – | – | – | – | – | – | – | 0.33 | COc1ccc(CNCc2ccc(-c3cccc(OC)c3)cc2)cc1 [Compound 11] |
| 4.7 | – | – | – | – | – | – | – | 0.21 | COc1ccc(CNCc2ccc(-c3cccc(OC)c3)cc2)cc1 [Compound 13] |

Reference: paper PMC12434521, “Characterization of Next-Generation Inhibitors for the Inward-Rectifier Potassium Channel Kir2.1: Discovery of VU6080824” (ACS Medicinal Chemistry Letters, 2025)
